Reference: US8778971B2, “Medicinal treatment of dermal diseases in companion animals” (Bridge Pharma, Inc., priority 2012, dated 2014)
Marks after values point to notes of the source that are not given here.

Tests used:
croton oil-treated ears [1] = assay: Croton oil ear inflammation, systemic (ip) administration; type: in vivo; details: mice, 10 mg/kg ip
Method: In order to investigate the effects of systemic administration of the test compounds in dermal inflammation, a croton oil model was used as is known in the art. This test consists of topical application of 20 μl of 1.0% croton oil to each ear of male mice, weighing 28-32 g. […] Application of the croton oil results in an inflammatory response. The weight of croton oil-treated ears was determined and the percent increase in ear weight is calculated. Test articles were dosed systemically (ip). […] All results represent mean ear weights (±S.E.M.) from 10 ears.

[2] = tested on: human leukocytes (buffy coat); assay: Inhibition of A23187-stimulated histamine release from leukocytes; type: cell-based
Method: In these studies, histamine was the marker compound for inflammatory mediators that are released from mast cells and other pro-inflammatory cells in patients with atopic inflammatory diseases. The inhibition of stimulated histamine release from human leukocytes (buffy coat) by test articles was studied. Leukocytes were obtained from healthy volunteers and histamine release was induced by incubation (20 min/37° C.) with the calcium ionophore A23187 (5 μM) in the presence or absence of a test article. Histamine was analyzed by enzyme-immune assays, using commercially available kits and a microplate reader (MRX, Dynatech). The test articles were evaluated, in duplicate, at five concentrations.

Staphylococcus aureus = assay: Antimicrobial test, plate count; type: cell-based; details: 0.035% norketotifen, within 7 days, from 750,000
Method: (§1) Studies were performed to evaluate possible antimicrobial activities of norketotifen at various concentrations and various pHs. […]. The standard microbial solutions of norketotifen contained the following excipients: Sodium citrate (0.3%), propylene glycol (1.75%), methylparaben (0.03%), propylparaben (0.01%), sterile water (as diluent).
(§2) The microorganisms were inoculated into 50 mL centrifuge tubes containing 10 mL of test sample at T=0. One (1) mL was aliquoted from each centrifuge tube for each of the following 4 weeks (except at 21 days). The log reduction was determined by the plate count method after 7, 14 and 28 days by diluting in DEB (D/E neutralizing Broth) from 10^−1 to 10^−4 for bacteria. Bacterial plates were poured with SCDA (Soybean Casein Digest Agar) and incubated at 32.5±2.5° C. for 3-5 days

Candida albicans = assay: Antimicrobial test, plate count; type: cell-based; details: 0.035% norketotifen, within 7 days, from 500,000
Method: as §1, §2

[3] = Solubility of norketotifen in non-aqueous solvents; type: physicochemical
Method: The hydrophobic ointment was prepared by dissolving norketotifen in propylene glycol. […] Next, glyceryl stearate, cetyl alcohol, and white petrolatum were added to a suitable container and heated to 65-70° C. This heating step melts the surfactants and the petrolatum. Next, norketotifen solution was slowly added and the composition mixed until the solvent was dispersed. Finally, the composition was cooled with mixing to allow the ointment to thicken.

dogs = assay: Sedative effects in dogs, cross-over oral dosing; type: in vivo; details: for Frequency of sedation: 20 mg/kg/day oral
Method: Sedation studies in dogs were performed according to a cross-over protocol, where the dogs were administered once daily the test articles orally at a dose of 20 mg/kg bodyweight that in a previous toxicology study was marginally toxic in dogs with equal plasma concentrations of R-norketotifen and S-norketotifen.
The test articles were administered in gelatin capsules and vehicle-capsules were empty. All dogs were healthy beagles (four males and two females), age 24-36 months, weighing 7.8-10.6 kg. The dogs were dosed at 9-10 AM and had been fasted overnight before dosing. There was a washout period of at least three days in all dogs between the tests. All assessments of sedation/sleepiness were made by a qualified (D.V.M.) scientist with extensive experience (>15 years) in studies with conscious laboratory dogs. The test articles were in the form of hydrogen fumarate salts.
It had previously been observed that dogs rarely express sedation in response to oral administration of benzocycloheptathiophene compounds on the first day of dosing and the dogs were therefore administered the test articles for three consecutive days.

[4] = tested on: histamine-induced pruritus; assay: Histamine-induced pruritus, topical cream; type: in vivo; details: mice, 1.0% cream topical 60 min before histamine
Method: Antipruritic effects were tested in vivo in CD-1 female mice aged 10-12 weeks, according to methods known in the art. The hair was clipped over the rostral part of the back at the interscapular level of the mice one day before dosing. Before testing, the mice were placed in individual clear plastic cages for at least one hour for acclimation. […] Lanolin was weighed and liquified by submerging the vessel containing lanolin in hot water. While the lanolin was liquid, it was rapidly nixed (by vortexing) with the 2.5% norketotifen solution in ethanol, resulting in a 1.0% solution. […] A cream containing 60% lanolin/40% ethanol served as control.

mice = assay: Sedative effects in mice, physostigmine lethality test; details: for Sedated animals: mice
Method: In short, physostigmine (1.0 mg/kg to 2.0 mg/kg, s.c.) generally results in 100% lethality when given to groups of mice (10 mice/group) transferred into a small volume of space. Mice administered a sedating drug prior to the physostigmine injection are protected from the stress and survive. In the present study, test compounds were given orally 60 minutes prior to physostigmine injection. The number of surviving (sedated) mice was counted 30 minutes after injection of the physostigmine dose.

croton oil-treated ears [5] = assay: Modified croton oil ear inflammation, topical cream; type: in vivo; details: mice, 1.0% cream topical
Method: In order to investigate the effects of topical administration of the test compounds in dermal inflammation, a modified croton oil model was used. […] The cream was then removed and a solution of 1% croton oil in 20 μl acetone was applied to both ears. […] Cream was wiped from the ears and ears were removed and weighed. […] All results represent mean ear weights (±S.E.M.) from 8 ears.

histamine H1-receptors = histamine H1-receptors (Homo sapiens, UniProt P35367); assay: H1 receptor binding, [3H]pyrilamine ligand; details: human recombinant receptors, read-out: H-1/IC50
Method: H1 receptor binding studies were conducted utilizing human recombinant receptors. In the studies shown herein, affinities of the test compounds for histamine H1-receptors were assessed using a binding assay, where [^3H]pyrilamine was used as the ligand and the test compounds were used at increasing concentrations. The specific binding of the radioactive ligand to the receptor was defined as the difference between total binding and nonspecific binding, determined in the presence of excess unlabeled ligand.

Sequence of histamine H1-receptors (P35367 whole entry): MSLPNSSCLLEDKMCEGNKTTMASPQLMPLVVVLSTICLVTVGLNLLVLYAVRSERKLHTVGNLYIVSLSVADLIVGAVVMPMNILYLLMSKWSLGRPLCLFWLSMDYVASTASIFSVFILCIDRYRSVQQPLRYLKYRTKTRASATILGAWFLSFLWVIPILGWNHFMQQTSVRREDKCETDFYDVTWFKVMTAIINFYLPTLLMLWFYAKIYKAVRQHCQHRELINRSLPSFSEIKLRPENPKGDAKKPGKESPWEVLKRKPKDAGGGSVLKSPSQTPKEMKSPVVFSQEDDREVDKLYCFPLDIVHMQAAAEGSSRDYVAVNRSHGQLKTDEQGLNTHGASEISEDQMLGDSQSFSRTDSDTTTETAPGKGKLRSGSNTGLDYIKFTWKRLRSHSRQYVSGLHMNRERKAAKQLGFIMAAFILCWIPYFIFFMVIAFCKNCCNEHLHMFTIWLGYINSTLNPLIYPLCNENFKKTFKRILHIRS

O=C1Cc2ccccc2C(=C2CCNCC2)c2ccsc21 (racemic) [Norketotifen, (RS)-4-(piperidylidene)-9,10-dihydro-4H-benzo-(4,5)-cyclohepta-(1,2-b) thiophene-10-one]
Average Ear weight ±SEM (croton oil-treated ears [1]; 90 min): 34 ± 1 mg
Average Ear weight ±SEM (croton oil-treated ears [1]; 120 min): 40 ± 1 mg
IC50 ([2]; Homo sapiens, Leukocyte, 20 min, A23187 5 μM, 20 min/37° C., read-out: Inhibition of inflammatory mediator (histamine) release, IC50): 9.2 µM
Times more potent than ketotifen as inhibitor of histamine release ([2]; pro-inflammatory cells): approximately 10 times
Staphylococcus aureus count after incubation (Staphylococcus aureus): 90,000
Candida albicans count after incubation (Candida albicans): 500 cells
Solubility ([3]; formulation G1009, mixture of two polyethylene glycols): about 1.0%
Solubility ([3]; in propylene glycol): about 1.0%
Frequency of sedation (dogs; DAY 1): 0/6
Frequency of sedation (dogs; DAY 2): 0/6
Frequency of sedation (dogs; DAY 3): 0/6
Sedation in dogs (in words) (dogs; oral): did not cause sedation in dogs
Bouts as % of Vehicle Controls [4]: 42 ** %
Bouts/40 min [4]: 61 ± 4
Bouts as % of Vehicle Controls ([4]; listed as RS-norketotifen): 42%
Sedated animals (mice; oral dose 83 mg/kg): 3/10
Sedated animals (mice; oral dose 100 mg/kg): 3/10
Sedated animals (mice; oral dose 150 mg/kg): 3/10
Sedated animals (mice; oral dose 180 mg/kg): 6/10
Sedation in mice (in words) (mice; physostigmine lethality test): expressed sedative activity
Average Ear Weight ±S.E.M (croton oil-treated ears [5]; 0 (predose) min after croton oil): 36 ± 1 mg
Average Ear Weight ±S.E.M (croton oil-treated ears [5]; 30 min after croton oil): 36 ± 1 mg
Average Ear Weight ±S.E.M (croton oil-treated ears [5]; 60 min after croton oil): 37 ± 2 mg
Average Ear Weight ±S.E.M (croton oil-treated ears [5]; 90 min after croton oil): 36 ± 2 mg
IC50 (histamine H1-receptors): 0.011 µM
